This note sets out measurements from US12692262B2, “Substituted ureas as orexin receptor agonists” (Merck Sharp & Dohme LLC, priority 2020, dated 2026).

In this assay the target is T1, human OX2R (Homo sapiens, UniProt O43614).
T1 construct: expressed in transfected cells; host or cells: CHO (Chinese hamster ovary) cells grown under G418 selection
T1 sequence (O43614 1-444): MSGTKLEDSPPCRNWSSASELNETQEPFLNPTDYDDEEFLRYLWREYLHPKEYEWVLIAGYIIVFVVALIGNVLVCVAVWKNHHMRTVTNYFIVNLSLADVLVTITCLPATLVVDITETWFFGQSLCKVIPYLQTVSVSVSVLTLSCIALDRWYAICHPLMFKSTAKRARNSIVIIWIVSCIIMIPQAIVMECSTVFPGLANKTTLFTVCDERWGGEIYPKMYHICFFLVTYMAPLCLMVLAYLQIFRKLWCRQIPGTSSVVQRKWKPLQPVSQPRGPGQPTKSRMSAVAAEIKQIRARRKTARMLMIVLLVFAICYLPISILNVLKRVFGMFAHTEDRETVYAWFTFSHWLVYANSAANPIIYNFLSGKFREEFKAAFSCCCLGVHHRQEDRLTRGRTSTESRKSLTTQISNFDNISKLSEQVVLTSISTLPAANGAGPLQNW
Description: IPOne (IP-1 accumulation) assay in CHO cells expressing human OX2R. The class given is cell-based. The following applies: for EC50: CHO cells expressing human OX2R, IP-One assay, 2 h incubation, four parameter logistic fit, read-out: OX2R Potency, EC50; for % of maximum agonist effect (relative to Orexin A): percent effect vs mean max effect of a reference compound at 1 uM (100% activity vs Orexin A), human OX2R. In outline:
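CHO cells stably expressing human OX2R, grown in Iscove's modified DMEM with 10% FBS; agonist-driven IP-1 accumulation via the Gαq pathway measured by HTRF (D2/AB-cryptate detection after lysis). EC50 taken as the inflection point of a four-parameter logistic fit.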

Structures are written as SMILES.

In the case of `CCOC1(CC(NC(=O)N(CC)[C@H](C)c2cccc(-c3cn4ccnc4c(OC)n3)c2)C(F)(F)F)CC1` (stereo partly drawn) [Example 2-57, 3-(3-(1-ethoxycyclopropyl)-1,1,1-trifluoropropan-2-yl)-1-ethyl-1-((R)-1-(3-(8-methoxyimidazo[1,2-a]pyrazin-6-yl)phenyl)ethyl)urea], the EC50 came out at 15.3 nM and the “% of maximum agonist effect (relative to Orexin A)” value was determined as 96.2%.

As to `CC[C@H](CCC(F)(F)F)NC(=O)N(C)[C@H](C)c1cccc(-c2cn3ccnc3c(OC)n2)c1` [Example 2-58, 1-((R)-1-(3-(8-methoxyimidazo[1,2-a]pyrazin-6-yl)phenyl)ethyl)-1-methyl-3-((R)-6,6,6-trifluorohexan-3-yl)urea], the EC50 was determined as 17.8 nM and the “% of maximum agonist effect (relative to Orexin A)” value amounted to 100.0%.

For `CCCN(C(=O)N[C@H](CC)CCC(F)(F)F)[C@H](C)c1cccc(-c2cn3ccnc3c(OC)n2)c1` [Example 2-59, 1-((R)-1-(3-(8-methoxyimidazo[1,2-a]pyrazin-6-yl)phenyl)ethyl)-1-propyl-3-((R)-6,6,6-trifluorohexan-3-yl)urea], the EC50 was 20.9 nM and the “% of maximum agonist effect (relative to Orexin A)” value is listed as 100.2%.

Consider `CC[C@H](CCC(F)(F)F)NC(=O)N(C(C)C)[C@H](C)c1cccc(-c2cn3ccnc3c(OC)n2)c1` [Example 2-60, 1-isopropyl-1-((R)-1-(3-(8-methoxyimidazo[1,2-a]pyrazin-6-yl)phenyl)ethyl)-3-((R)-6,6,6-trifluorohexan-3-yl)urea], for which the EC50 came out at 64.4 nM and the “% of maximum agonist effect (relative to Orexin A)” value was determined as 97.4%.

For the compound `COc1nc(-c2cccc(C(C)N(CC(F)F)C(=O)N[C@@H](CCC(F)(F)F)C(F)(F)F)c2)cn2ccnc12` (stereo partly drawn) [Example 2-61, 1-(2,2-difluoroethyl)-3-((S)-1,1,1,5,5,5-hexafluoropentan-2-yl)-1-(1-(3-(8-methoxyimidazo[1,2-a]pyrazin-6-yl)phenyl)ethyl)urea], the EC50 was determined as 5.8 nM and the “% of maximum agonist effect (relative to Orexin A)” value stood at 99.5%.

Turning to `CCN(C(=O)N[C@@H](C)C(F)(F)F)C(c1cnc(OC)c(-c2cn3ccnc3c(OC)n2)c1)C(F)(F)F` (stereo partly drawn) [Example 2-62, 1-ethyl-1-(2,2,2-trifluoro-1-(6-methoxy-5-(8-methoxyimidazo[1,2-a]pyrazin-6-yl)pyridin-3-yl)ethyl)-3-((S)-1,1,1-trifluoropropan-2-yl)urea], the EC50 came to 13.1 nM and the “% of maximum agonist effect (relative to Orexin A)” value is 95.6%.

Regarding `CCN(C(=O)N[C@@H](CCC(F)(F)F)C(F)(F)F)C(C)c1ccnc(-c2cn3ccnc3c(OC)n2)n1` (stereo partly drawn) [Example 2-63, 1-ethyl-3-((S)-1,1,1,5,5,5-hexafluoropentan-2-yl)-1-(1-(2-(8-methoxyimidazo[1,2-a]pyrazin-6-yl)pyrimidin-4-yl)ethyl)urea], the EC50 stood at 1060 nM and the “% of maximum agonist effect (relative to Orexin A)” value is reported as 96.2%.

As for `CCN(C(=O)N[C@@H](CCC(F)(F)F)C(F)(F)F)C(C)c1cnnc(-c2cn3ccnc3c(OC)n2)c1` (stereo partly drawn) [Example 2-64, 1-ethyl-3-((S)-1,1,1,5,5,5-hexafluoropentan-2-yl)-1-(1-(6-(8-methoxyimidazo[1,2-a]pyrazin-6-yl)pyridazin-4-yl)ethyl)urea], the EC50 turned out to be 2870 nM and the “% of maximum agonist effect (relative to Orexin A)” value stood at 81.2%.

Turning to `C#CC(CCC(F)(F)F)NC(=O)N(CC)[C@H](C)c1cccc(-c2cn3ccnc3c(OC)n2)c1` (stereo partly drawn) [Example 2-65, 1-ethyl-1-((R)-1-(3-(8-methoxyimidazo[1,2-a]pyrazin-6-yl)phenyl)ethyl)-3-(6,6,6-trifluorohex-1-yn-3-yl)urea], the concentration giving a half-maximal response (EC50) stood at 4 nM and the “% of maximum agonist effect (relative to Orexin A)” value worked out at 100.1%.

In the case of `CCN(C(=O)NC(c1cccc(F)c1)C(F)(F)F)[C@@H](c1cccc(-c2cn3ccnc3c(OC)n2)c1)C(F)(F)F` (stereo partly drawn) [Example 2-66, 1-ethyl-1-((S)-2,2,2-trifluoro-1-(3-(8-methoxyimidazo[1,2-a]pyrazin-6-yl)phenyl)ethyl)-3-(2,2,2-trifluoro-1-(3-fluorophenyl)ethyl)urea], the EC50 is 5.2 nM and the “% of maximum agonist effect (relative to Orexin A)” value is on record as 97.2%.
